pIC50: −log10 of the molar value. ≈ marks a conversion by molar mass, not a printed value. Calls of active or inactive are those of the source. No cut-off for these calls is given here.
Columns and labels:
[1] = system: Mycobacterium tuberculosis; assay: Antimycobacterial activity against Mycobacterium tuberculosis H37Rv 331/88 after 14 days by micromethod; format: functional; conditions: H37Rv 331/88, 336 h
[2] = system: Mycobacterium tuberculosis; assay: Antimycobacterial activity against Mycobacterium tuberculosis H37Rv 331/88 after 21 days by micromethod; format: functional; conditions: H37Rv 331/88, 504 h
Mycobacterium avium [3] = assay: Antimycobacterial activity against Mycobacterium avium 330/88 after 14 days by micromethod; format: functional; conditions: 330/88, 336 h
Mycobacterium avium [4] = assay: Antimycobacterial activity against Mycobacterium avium 330/88 after 21 days by micromethod; format: functional; conditions: 330/88, 504 h
Mycobacterium kansasii [5] = assay: Antimycobacterial activity against Mycobacterium kansasii 6509/80 after 7 days by micromethod; format: functional; conditions: 6509/80, 168 h
Mycobacterium kansasii [6] = assay: Antimycobacterial activity against Mycobacterium kansasii 6509/80 after 14 days by micromethod; format: functional; conditions: 6509/80, 336 h
Mycobacterium kansasii [7] = assay: Antimycobacterial activity against Mycobacterium kansasii 6509/80 after 21 days by micromethod; format: functional; conditions: 6509/80, 504 h
Mycobacterium kansasii [8] = assay: Antimycobacterial activity against Mycobacterium kansasii 6509/96 after 7 days by micromethod; format: functional; conditions: 6509/96, 168 h
Mycobacterium kansasii [9] = assay: Antimycobacterial activity against Mycobacterium kansasii 6509/96 after 14 days by micromethod; format: functional; conditions: 6509/96, 336 h
Mycobacterium kansasii [10] = assay: Antimycobacterial activity against Mycobacterium kansasii 6509/96 after 21 days by micromethod; format: functional; conditions: 6509/96, 504 h
Klebsiella pneumoniae [11] = assay: Antibacterial activity against gram-negative Klebsiella pneumoniae D 11750/08 after 24 to 48 hrs by microdilution broth method; format: functional, organism-based
Pseudomonas aeruginosa = assay: Antibacterial activity against gram-negative Pseudomonas aeruginosa CCM 1961 after 48 hrs by microdilution broth method; format: functional, organism-based
Klebsiella pneumoniae [12] = assay: Antibacterial activity against extended spectrum beta-lactamase-positive Klebsiella pneumoniae J 14368/08 after 24 to 48 hrs by microdilution broth method; format: functional, organism-based
Candida albicans = assay: Antifungal activity against Candida albicans ATCC 44859 after 24 to 48 hrs by microdilution broth method; format: functional, organism-based
Trichosporon asahii = assay: Antifungal activity against Trichosporon asahii 1188 after 24 to 48 hrs by microdilution broth method; format: functional, organism-based
Aspergillus fumigatus = assay: Antifungal activity against Aspergillus fumigatus 231 after 24 to 48 hrs by microdilution broth method; format: functional, organism-based
Lichtheimia corymbifera = assay: Antifungal activity against Absidia corymbifera 272 after 24 to 48 hrs by microdilution broth method; format: functional, organism-based
Staphylococcus aureus [13] = assay: Antibacterial activity against gram-positive Staphylococcus aureus CCM 4516/08 after 24 hrs by microdilution broth method; format: functional; conditions: CCM 4516/08, 24 h
Staphylococcus aureus [14] = assay: Antibacterial activity against gram-positive Staphylococcus aureus CCM 4516/08 after 48 hrs by microdilution broth method; format: functional; conditions: CCM 4516/08, 48 h
Staphylococcus aureus [15] = assay: Antibacterial activity against gram-positive methicillin-resistant Staphylococcus aureus H 5996/08 after 24 hrs by microdilution broth method; format: functional; conditions: H 5996/08, 24 h
Staphylococcus aureus [16] = assay: Antibacterial activity against gram-positive methicillin-resistant Staphylococcus aureus H 5996/08 after 48 hrs by microdilution broth method; format: functional; conditions: H 5996/08, 48 h
[17] = system: Staphylococcus epidermidis; assay: Antibacterial activity against gram-positive Staphylococcus epidermidis H 6966/08 after 24 hrs by microdilution broth method; format: functional; conditions: H 6966/08, 24 h
[18] = system: Staphylococcus epidermidis; assay: Antibacterial activity against gram-positive Staphylococcus epidermidis H 6966/08 after 48 hrs by microdilution broth method; format: functional; conditions: H 6966/08, 48 h
Enterococcus faecalis [19] = assay: Antibacterial activity against gram-positive Enterococcus faecalis J 14365/08 after 24 hrs by microdilution broth method; format: functional; conditions: J 14365/08, 24 h
Enterococcus faecalis [20] = assay: Antibacterial activity against gram-positive Enterococcus faecalis J 14365/08 after 48 hrs by microdilution broth method; format: functional; conditions: J 14365/08, 48 h
Escherichia coli [21] = assay: Antibacterial activity against gram-negative Escherichia coli CCM 4517 after 24 hrs by microdilution broth method; format: functional; conditions: CCM 4517, 24 h
Escherichia coli [22] = assay: Antibacterial activity against gram-negative Escherichia coli CCM 4517 after 48 hrs by microdilution broth method; format: functional; conditions: CCM 4517, 48 h
Candida tropicalis [23] = assay: Antifungal activity against Candida tropicalis 156 after 24 hrs by microdilution broth method; format: functional; conditions: Candida tropicalis, 156, 24 h
Candida tropicalis [24] = assay: Antifungal activity against Candida tropicalis 156 after 48 hrs by microdilution broth method; format: functional; conditions: Candida tropicalis, 156, 48 h
Pichia kudriavzevii [25] = assay: Antifungal activity against Candida krusei E28 after 24 hrs by microdilution broth method; format: functional; conditions: E28, 24 h
Pichia kudriavzevii [26] = assay: Antifungal activity against Candida krusei E28 after 48 hrs by microdilution broth method; format: functional; conditions: E28, 48 h
Nakaseomyces glabratus [27] = assay: Antifungal activity against Candida glabrata 20/I after 24 hrs by microdilution broth method; format: functional
Nakaseomyces glabratus [28] = assay: Antifungal activity against Candida glabrata 20/I after 48 hrs by microdilution broth method; format: functional
[29] = system: Trichophyton mentagrophytes; assay: Antifungal activity against Trichophyton mentagrophytes 445 after 72 hrs by microdilution broth method; format: functional; conditions: Trichophyton mentagrophytes, 445, 72 h
[30] = system: Trichophyton mentagrophytes; assay: Antifungal activity against Trichophyton mentagrophytes 445 after 120 hrs by microdilution broth method; format: functional; conditions: Trichophyton mentagrophytes, 445, 120 h
[31] = Solubility of the compound in Mueller-Hinton broth; format: physicochemical
HepG2 [32] = assay: Cytostatic activity against human HepG2 cells incubated overnight followed by compound wash measured after 72 hrs by MTT assay; format: ADME, cell-based; conditions: HepG2, 72 h
MONO-MAC-6 [33] = assay: Cytostatic activity against human MONO-MAC-6 cells incubated overnight followed by compound wash measured after 72 hrs by MTT assay; format: ADME, cell-based; conditions: MONO-MAC-6, 72 h
HepG2 [34] = assay: Cytotoxicity against human HepG2 cells after overnight incubation by MTT assay; format: cell-based
MONO-MAC-6 [35] = assay: Cytotoxicity against human MONO-MAC-6 cells after overnight incubation by MTT assay; format: functional, cell-based
[36] = Cytotoxicity against mouse bone marrow macrophages after overnight incubation by MTT assay; conditions: BMDM
[37] = Selectivity index, ratio of IC50 for human HepG2 cells to MIC for Mycobacterium tuberculosis H37Rv 331/88; format: toxicity; conditions: read-out: Selectivity Index

Compound: NNC(=O)c1ccncc1 [ISONIAZID]
- MIC [1]: 0.5 µM (≈ 0.0686 µg/mL)
- MIC [2]: 1 µM (≈ 0.137 µg/mL)
- MIC (Mycobacterium avium [3]): > 250 µM
- MIC (Mycobacterium avium [4]): > 250 µM
- MIC (Mycobacterium kansasii [5]): > 250 µM
- MIC (Mycobacterium kansasii [6]): > 250 µM
- MIC (Mycobacterium kansasii [7]): > 250 µM
- MIC (Mycobacterium kansasii [8]): 8 µM (≈ 1.1 µg/mL)
- MIC (Mycobacterium kansasii [9]): 8 µM (≈ 1.1 µg/mL)
- MIC (Mycobacterium kansasii [10]): 8 µM (≈ 1.1 µg/mL)

Compound: O=C(N/N=C/c1ccc([N+](=O)[O-])cc1)c1ccc(C(F)(F)F)cc1
- MIC [1]: 125 µM (≈ 42.2 µg/mL)
- MIC [2]: > 250 µM
- MIC (Mycobacterium avium [3]): > 250 µM
- MIC (Mycobacterium avium [4]): > 250 µM
- MIC (Mycobacterium kansasii [5]): 32 µM (≈ 10.8 µg/mL)
- MIC (Mycobacterium kansasii [6]): 62.5 µM (≈ 21.1 µg/mL)
- MIC (Mycobacterium kansasii [7]): 62.5 µM (≈ 21.1 µg/mL)
- MIC (Mycobacterium kansasii [8]): 250 µM (≈ 84.3 µg/mL)
- MIC (Mycobacterium kansasii [9]): > 250 µM
- MIC (Mycobacterium kansasii [10]): > 250 µM
- Activity (Klebsiella pneumoniae [11]): inactive
- Activity (Pseudomonas aeruginosa): inactive
- Activity (Klebsiella pneumoniae [12]): inactive
- Activity (Candida albicans): inactive
- Activity (Trichosporon asahii): inactive
- Activity (Aspergillus fumigatus): inactive
- Activity (Lichtheimia corymbifera): inactive

Compound: O=C(N/N=C/c1cccc(Cl)c1)c1ccc(C(F)(F)F)cc1
- MIC [1]: > 125 µM
- MIC [2]: > 125 µM
- MIC (Mycobacterium avium [3]): > 125 µM
- MIC (Mycobacterium avium [4]): > 125 µM
- MIC (Mycobacterium kansasii [5]): 125 µM (≈ 40.8 µg/mL)
- MIC (Mycobacterium kansasii [6]): > 125 µM
- MIC (Mycobacterium kansasii [7]): > 125 µM
- MIC (Mycobacterium kansasii [8]): > 125 µM
- MIC (Mycobacterium kansasii [9]): > 125 µM
- MIC (Mycobacterium kansasii [10]): > 125 µM
- Activity (Klebsiella pneumoniae [11]): inactive
- Activity (Pseudomonas aeruginosa): inactive
- Activity (Klebsiella pneumoniae [12]): inactive
- Activity (Candida albicans): inactive
- Activity (Trichosporon asahii): inactive
- Activity (Aspergillus fumigatus): inactive
- Activity (Lichtheimia corymbifera): inactive

Compound: O=C(N/N=C/c1ccc(O)cc1)c1ccc(C(F)(F)F)cc1
- MIC [1]: 125 µM (≈ 38.5 µg/mL)
- MIC [2]: 125 µM (≈ 38.5 µg/mL)
- MIC (Mycobacterium avium [3]): 250 µM (≈ 77.1 µg/mL)
- MIC (Mycobacterium avium [4]): 500 µM (≈ 154 µg/mL)
- MIC (Mycobacterium kansasii [5]): 62.5 µM (≈ 19.3 µg/mL)
- MIC (Mycobacterium kansasii [6]): 125 µM (≈ 38.5 µg/mL)
- MIC (Mycobacterium kansasii [7]): 125 µM (≈ 38.5 µg/mL)
- MIC (Mycobacterium kansasii [8]): 250 µM (≈ 77.1 µg/mL)
- MIC (Mycobacterium kansasii [9]): 500 µM (≈ 154 µg/mL)
- MIC (Mycobacterium kansasii [10]): 500 µM (≈ 154 µg/mL)
- MIC (Staphylococcus aureus [13]): 250 µM (≈ 77.1 µg/mL)
- MIC (Staphylococcus aureus [14]): 250 µM (≈ 77.1 µg/mL)
- MIC (Staphylococcus aureus [15]): 250 µM (≈ 77.1 µg/mL)
- MIC (Staphylococcus aureus [16]): 250 µM (≈ 77.1 µg/mL)
- MIC [17]: 125 µM (≈ 38.5 µg/mL)
- MIC [18]: 125 µM (≈ 38.5 µg/mL)
- MIC (Enterococcus faecalis [19]): > 250 µM
- MIC (Enterococcus faecalis [20]): > 250 µM
- MIC (Escherichia coli [21]): > 250 µM
- MIC (Escherichia coli [22]): > 250 µM
- Activity (Klebsiella pneumoniae [11]): inactive
- Activity (Pseudomonas aeruginosa): inactive
- Activity (Klebsiella pneumoniae [12]): inactive
- MIC (Candida tropicalis [23]): > 125 µM
- MIC (Candida tropicalis [24]): > 125 µM
- MIC (Pichia kudriavzevii [25]): > 125 µM
- MIC (Pichia kudriavzevii [26]): > 125 µM
- MIC (Nakaseomyces glabratus [27]): > 125 µM
- MIC (Nakaseomyces glabratus [28]): > 125 µM
- MIC [29]: > 125 µM
- MIC [30]: > 125 µM
- Activity (Candida albicans): inactive
- Activity (Trichosporon asahii): inactive
- Activity (Aspergillus fumigatus): inactive
- Activity (Lichtheimia corymbifera): inactive

Compound: O=C(N/N=C/c1ccc(Br)cc1)c1ccc(C(F)(F)F)cc1
- solubility [31]: Insoluble

Compound: CC12CCC(C/C1=N\NC(=O)c1ccc(C(F)(F)F)cc1)C2(C)C (configuration not stated)
- MIC [1]: 4 µM (≈ 1.35 µg/mL)
- MIC [2]: 4 µM (≈ 1.35 µg/mL)
- MIC (Mycobacterium avium [3]): > 250 µM
- MIC (Mycobacterium avium [4]): > 250 µM
- MIC (Mycobacterium kansasii [5]): > 250 µM
- MIC (Mycobacterium kansasii [6]): > 250 µM
- MIC (Mycobacterium kansasii [7]): > 250 µM
- MIC (Mycobacterium kansasii [8]): > 250 µM
- MIC (Mycobacterium kansasii [9]): > 250 µM
- MIC (Mycobacterium kansasii [10]): > 250 µM
- solubility [31]: Insoluble
- pIC50 (HepG2 [32]): < 4.00
- pIC50 (MONO-MAC-6 [33]): < 4.00
- pIC50 (HepG2 [34]): < 4.00
- pIC50 (MONO-MAC-6 [35]): < 4.00
- pIC50 [36]: < 4.00
- selectivity ratio [37]: > 25
